From PMC10953372 (2023) come the findings set out here.

Experiment [1] relates to Neomycin-bindender Riboschalter (2FA-markiert) (RNA, riboswitch, 2-fluoroadenine at 16, 17 and 24) GGCUGCUUGUCCUUUAAUGGUCCAGCC
Briefly: 19F NMR titration and CEST. The note with it: 303 K; 215-1200 µM samples, 1 to 1.5 equivalents of ligand.

Experiment [2] shares this test system. Briefly: 19F NMR CEST. The settings on record: 303 K; derived from kex = [L]kon + koff = 88 ± 8 s^-1; subsaturating ligand.

For the compound `NC[C@@H]1O[C@H](O[C@H]2[C@@H](O)[C@H](O[C@@H]3[C@@H](O)[C@H](N)C[C@H](N)[C@H]3O[C@H]3O[C@H](CN)[C@@H](O)[C@H](O)[C@H]3N)O[C@@H]2CO)[C@H](N)[C@@H](O)[C@@H]1O`, the binding entry in experiment [1] was “yes”. `NC[C@H]1O[C@H](O[C@H]2[C@H](O[C@@H]3O[C@H](CO)[C@@H](O)[C@H]3O)[C@@H](O)[C@H](N)C[C@@H]2N)[C@H](N)[C@@H](O)[C@@H]1O`: the koff in experiment [2] is ~ 1.4 s^-1.
